Data as given in patent publication US20070167465A1, “Fungicidal mixtures” (BASF AKTIENGESELLSCHAFT, priority 2004, published 2007).

System: Pyrenophora teres
Experiment: activity against net blotch of barley caused by Pyrenophora teres, 1-day-protective application
Type: in vivo, Pyrenophora [syn. Drechslera] teres on barley seedlings
Conditions: individual active compound, barley seedlings, assessed after 6 days
Protocol: The active compounds, separately or jointly, were prepared as a stock solution comprising 0.25% by weight of active compound in acetone or DMSO. 1% by weight of the emulsifier Uniperol® EL (wetting agent having emulsifying and dispersant action based on ethoxylated alkylphenols) was added to this solution, and the mixture was diluted with water to the desired concentration.
Use example—activity against net blotch of barley caused by Pyrenophora teres, 1-day-protective application.
Leaves of pot-grown barley seedlings were sprayed to run-off point with an aqueous suspension having the concentration of active compound stated below. 24 hours after the spray coating had dried on, the test plants were inoculated with an aqueous spore suspension of Pyrenophora [syn. Drechslera] teres, the causative agent of net blotch. The test plants were subsequently placed in a greenhouse at temperatures of between 20 and 24° C. and at 95 to 100% relative atmospheric humidity. After 6 days, the extent of development of the disease was determined visually in % infection of the total leaf area.
The visually determined percentages of infected leaf areas were converted into efficacies in % of the untreated control:
The efficacy (E) is calculated as follows using Abbot's formula: E=(1−α/β).100 α corresponds to the fungal infection of the treated plants in % and β corresponds to the fungal infection of the untreated (control) plants in %
An efficacy of 0 means that the infection level of the treated plants corresponds to that of the untreated control plants; an efficacy of 100 means that the treated plants were not infected.
The expected efficacies of mixtures of active compounds were determined using Colby's formula (Colby, S. R. “Calculating synergistic and antagonistic responses of herbicide combinations”, Weeds, 15, 20-22, 1967) and compared with the observed efficacies.
Colby's formula: E=x+y−x·y/100 • E expected efficacy, expressed in % of the untreated control, when using the mixture of the active compounds A and B at the concentrations a and b • x efficacy, expressed in % of the untreated control, when using the active compound A at the concentration a
y efficacy, expressed in % of the untreated control, when using the active compound B at the concentration b

Compound	Efficacy in % of the untreated control (0.25 ppm in the spray liquor)	Efficacy in % of the untreated control (1.25 ppm in the spray liquor)	Efficacy in % of the untreated control (6.25 ppm in the spray liquor)
CC(C)NC(=O)N1CC(=O)N(c2cc(Cl)cc(Cl)c2)C1=O [II (iprodione), N-isopropyl-3-(3,5-dichlorophenyl)-2,4-dioxoimidazolidine-1-carboxamide]	0 % of the untreated control	0 % of the untreated control	0 % of the untreated control
CC1CCN(c2c(-c3c(F)cc(F)cc3F)c(Cl)nc3ncnn23)CC1 [I, 5-chloro-7-(4-methylpiperidin-1-yl)-6-(2,4,6-trifluorophenyl)-[1,2,4]triazolo[1,5-a]pyrimidine]		56 % of the untreated control	
